According to patent US20060234934A1, “Composition and Method for Selective Cytostasis” (priority 2005, published 2006):

Columns and labels:
[1] = system: ALL line MOLT-4 (CRL1582); test: 3[H]thymidine uptake in leukemic cell line MOLT-4; assay type: cell-based, human; conditions: 50 nG/mL
Description: For example, the ALL line MOLT-4 (now denoted CRL1582 by the ATCC) was used for testing a representative cytostatic peptide for its effect on leukemic cells. The testing method described by Kikuwa, et al (1986), which is hereby incorporated herein by reference. In brief, the cells were maintained as a suspension in RPMI 1640 (Gibco) and 10% FCS, 100 u. penicillin G/mL and 100 micrograms streptomycin/mL with 2 mM L-glutamine.
Representative non-toxic cytostatic peptides were tested in still other cancer cell lines.

[2] = system: Malignant melanoma A375 cells; test: 3[H]-thymidine incorporation in A375 cell cultures; assay type: cell-based
Description: Each fraction was reconstituted in 110 μl of Dulbecco's modified Eagle's medium (DMEM) with fetal calf serum (FCS) 5 vol. %, 100 I.U. penicillin, 100 μg streptomycin and 2 nmole glutamine.
Malignant melanoma A375 cells (obtained from the American Type Culture Collection, Rockville, Md.) were counted in a counter (obtained from Coulter Diagnostics, Hialeah, Fla.), and about 4,000 cells were seeded into each well of a 96 well microtiter plate (obtained from Fisher Scientific, Springfield, N.J.) with 200 I.U. penicillin, 200 µg streptomycin and DMEM containing FCS 5 vol. %, 2 nmole glutamine, and […] HEPES (hydroxyethylpiperazine-ethanesulfonic acid buffer) as needed to give a final well volume of […]. […]
The cell cultures were terminated and harvested with a cell harvester (obtained from Flow Laboratories, McLean, Va., under the designation Titertek®), removing the contents of each microtiter plate well onto glass fiber filter paper. […] The strips were placed in scintillation vials and counted in 2 ml scintillation solution (obtained from Fisher Scientific, Springfield, N.J., under the designation Scintiverse®) using a scintillation counter (Model No. LS 100 C. obtained from Beckman Instruments, Somerset, N.J.) to determine the uptake of ^3[H]-thymidine into newly synthesized DNA.

serine-glutamine-cysteine-glutamic acid-glutamine-glutamic acid-glycine-glycine-phenalalanine-cysteine-arginine-phenylalanine-leucine-leucine-cysteine-proline-serine-arginine-threonine-serine-aspartic acid-isoleucine-glysine-lysine-leucine-glycine-cysteine-glutamic acid-proline-leucine-tryptophan-lysine-cysteine-cysteine-lysine-arginine-tryptophan-glycine-glycine [peak Q]
less 3[H]thymidine uptake than controls [1]: 90-95%
visual appearance of cells [1]: altered “rounded” visual appearance
less 3[H]-thymidine uptake than controls ([2]; HPLC fraction): about 50%
amount sufficient to arrest the proliferations of at least about 100,000 melanoma cells ([2]; melanoma cells): about 50 ng
